Reference: PubChem BioAssay (NCI)
Values joined by “and” are separate entries in the source; they are usually repeats but may differ in a detail not shown here. Equal entries are not always repeated.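 Interpolation was linear, between the two tested concentrations surrounding the appropriate level; five concentrations were tested over 48 hours in 96-well plates. GI50: concentration for 50% inhibition of growth. TGI: total growth inhibition.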

Legend:
Experiment in all cases: inhibition of tumour cell growth, NCI panel, 48 h
NCI-H522 lung = system: NCI-H522 lung
MOLT-4 leukemia = system: MOLT-4 leukemia
CAKI-1 renal = system: CAKI-1 renal
SK-MEL-2 melanoma = system: SK-MEL-2 melanoma
HOP-92 NSCLC = system: HOP-92 NSCLC
IGROV1 ovarian = system: IGROV1 ovarian
SNB-19 CNS = system: SNB-19 CNS
SNB-75 CNS = system: SNB-75 CNS
PC-3 prostate = system: PC-3 prostate

Structure (SMILES)	TGI (NCI-H522 lung)	TGI (MOLT-4 leukemia)	TGI (CAKI-1 renal) [µM]	TGI (SK-MEL-2 melanoma) [µM]	TGI (HOP-92 NSCLC)	TGI (IGROV1 ovarian) [µM]	TGI (SNB-19 CNS) [µM]	TGI (SNB-75 CNS)	GI50 (CAKI-1 renal) [µM]	TGI (PC-3 prostate) [µM]	GI50 (NCI-H522 lung) [µM]	GI50 (MOLT-4 leukemia) [µM]	GI50 (HOP-92 NSCLC) [µM]	GI50 (SNB-19 CNS) [µM]	GI50 (SNB-75 CNS)	GI50 (SK-MEL-2 melanoma) [µM]
NCCCNCCSP(=O)(O)O	738 µM	> 750 µM	> 750	> 700	> 750 µM	> 750	> 750	> 750 µM								
Cc1ccc(N2Cc3c(ccc4ccccc34)OP2(=S)N2CCCC2)cc1 (stereo not drawn)	> 100 µM	> 100 µM	> 100	> 100	> 100 µM	> 100	> 100	> 100 µM								
CN1COCN=C1NC#N	> 100 µM	> 100 µM	> 100	> 100		> 100	> 100	> 100 µM								
COC(=O)c1c(CC(=O)OC(C)C)cc2n(c1=O)Cc1c-2nc2ccccc2c1OC	> 100 µM	> 100 µM	> 100	> 100	> 100 µM	> 100	> 100	> 100 µM								
O=C(O)C12C=CC(C1)c1ccccc12 (stereo not drawn)		> 100 µM	> 100		> 100 µM	> 100	> 100									
CSCSCC(CO)NC(=O)/C=C\c1c(C)[nH]c(=O)[nH]c1=O (stereo not drawn)	8.48 µM	59.1 µM	33.3	136	10.1 µM	320	197	118 µM	2.04							
C=CC(C)(C)/C(=C\CO[Si](C(C)C)(C(C)C)C(C)C)C(=O)N(C)c1ccccc1I	19 µM	25.2 µM	44		22.2 µM	30.3	28.1	31.7 µM		12.6						
COc1cccc(C2C(C#N)=C(N)Oc3cc(OCCCCCC[P+](c4ccccc4)(c4ccccc4)c4ccccc4)ccc32)c1 (stereo not drawn)	2.49 µM	3.96 µM	3.48		0.912 µM		1.44	2.11 µM	1.68		0.515	1.22	0.23	0.366	0.21 µM	
O=c1[nH]c(=S)[nH]c2c1CCCN2	> 100 µM	> 100 µM	> 100	> 100	> 100 µM	> 100	> 100	> 100 µM								
COC1CCC(CO)OO1 (stereo not drawn)	27.4 µM	> 100 µM		> 100	> 100 µM	75.8	> 100	> 100 µM								
N/C(=N\N=C/c1c(O)cc(O)cc1O)NO	> 100 µM	> 100 µM	> 100	> 100	> 100 µM	> 100	> 100	98.8 µM								
CC(=O)OC1C2CCC3CC2C2(SCCS2)C31 (stereo not drawn)	> 100 µM	> 100 µM		> 100	> 100 µM	> 100	> 100			> 100						
Cc1c2cc[n+](C)cc2c(C)c2c1[nH]c1ccc(OCC(F)(F)F)cc12	5.64 µM and 4.83 µM	11.1 µM and > 55.9 µM	> 64.7	> 100	8.98 µM and > 28.5 µM	> 100	3.02	2.62 µM and 0.833 µM							0.837 µM and 0.271 µM	5.9
C=C1C(=O)OC2C[C@@]3(C)CCCC(=C)C3CC12 (stereo partly drawn)	3.65 µM		19.4	12.7	14.6 µM	33.3	23.4	20.1 µM								
CCOC(=O)c1c(SC(=O)c2ccc(Cl)cc2)n(-c2ccccc2)c(=S)n(-c2ccccc2)c1=O	> 100 µM	> 100 µM	> 100		> 100 µM	> 100	> 100	> 100 µM		> 100						
N#Cc1nc(CN2C(=O)c3ccccc3C2=O)oc1N	> 100 µM	> 100 µM	> 100	> 100	> 100 µM	> 100		> 100 µM		> 100						
CC(C)(C1=NC(C(C)(C)C)CO1)C1=N[C@@H](C(C)(C)C)CO1 (stereo partly drawn)	> 100 µM	> 100 µM		> 100	> 100 µM	> 100	> 100	> 100 µM								
C/C(N=NS(=O)(=O)c1c(C)cc(C)cc1C)=C1\C=CC=CN1O	> 100 µM	> 100 µM	> 100		> 100 µM	> 100	> 100	> 100 µM								
O=C(CCC(NC(=O)OCc1ccccc1)C(=O)OCc1ccccc1)Nc1cccc(OCc2ccccc2)c1 (stereo not drawn)	70.1 µM	> 100 µM	> 100		75 µM	71.1	> 100	> 100 µM		35.9						
CN1CCC(O)(OC(=O)C(c2ccccc2)C2(O)CCCC2)CC1 (stereo not drawn)	> 100 µM	> 100 µM	> 100	> 100	> 100 µM	> 100	> 100	> 100 µM		> 100						
CN1Cc2ccccc2C2(COc3ccccc3C2=O)C1 (stereo not drawn)	> 100 µM	> 100 µM	> 100	> 100	93.6 µM	> 100	> 100	> 100 µM								
O=Cn1c2ccccc2c2ccccc21	> 100 µM	> 100 µM		> 100	> 100 µM	> 100	> 100									
